Laboratory results published in PubChem BioAssay AID250 (DTP/NCI, 2004).
Values joined by “and” are separate entries in the source; they are usually repeats but may differ in a detail not shown here. Equal values may be shown once. Toxic doses and inconclusive results are not listed.

Tested on: BDF1 mice, L1210 leukemia sc, survival T/C
Assay: NCI In Vivo Anticancer Drug Screen. Data for tumor model L1210 Leukemia (subcutaneous) in B6D2F1 (BDF1) mice
Details: endpoint: median survival time, higher = longer survival
How it was run: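 Read-out: T/C ratio, i.e. survival or tumor size in treated mice over that in vehicle-treated controls, from mice bearing transplantable tumors.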

`S=c1nc[nH]c2nc[nH]c12` was tested, and the T/C (dose: 60.0 mg/kg/injection, schedule: Q01DX001 (ip), vehicle: saline) was 100 % of control, the T/C (dose: 64.8 mg/kg/injection, schedule: Q01DX Z (sc), vehicle: other) was 150 % of control and the T/C (dose: 65.0 mg/kg/injection, schedule: Q01DX001 (sc), vehicle: other) was 105 % of control and 115 % of control. The T/C (dose: 65.0 mg/kg/injection, schedule: Q01DX Z (oral), vehicle: methylcellulose (MC)) was 104 % of control and 115 % of control, the T/C (dose: 65.0 mg/kg/injection, schedule: Q01DX Z (sc), vehicle: methylcellulose (MC)) was 154 % of control and the T/C (dose: 65.0 mg/kg/injection, schedule: Q02DX Z (sc), vehicle: other) was 105 % of control and 115 % of control. The T/C (dose: 65.0 mg/kg/injection, schedule: Q07DX Z (sc), vehicle: other) was 105 % of control and 115 % of control, the T/C (dose: 65.0 mg/kg/injection, schedule: Q## X Z (sc), vehicle: other) was 100 % of control and the T/C (dose: 78.0 mg/kg/injection, schedule: Q01DX Z (oral), vehicle: methylcellulose (MC)) was 113 % of control. For the same compound, the T/C (dose: 78.0 mg/kg/injection, schedule: Q01DX Z (sc), vehicle: other) was 155 % of control, the T/C (dose: 80.0 mg/kg/injection, schedule: Q01DX009 (ip), vehicle: other) was 150 % of control and the T/C (dose: 80.0 mg/kg/injection, schedule: Q01DX009 (sc), vehicle: other) was 155 % of control. The T/C (dose: 90.0 mg/kg/injection, schedule: Q01DX001 (ip), vehicle: saline) was 110 % of control, the T/C (dose: 108.0 mg/kg/injection, schedule: Q01DX001 (sc), vehicle: other) was 115 % of control and the T/C (dose: 108.0 mg/kg/injection, schedule: Q01DX Z (ip), vehicle: other) was 155 % of control. The T/C (dose: 108.0 mg/kg/injection, schedule: Q01DX Z (oral), vehicle: methylcellulose (MC)) was 105 % of control and 118 % of control, the T/C (dose: 108.0 mg/kg/injection, schedule: Q02DX Z (sc), vehicle: other) was 152 % of control and the T/C (dose: 108.0 mg/kg/injection, schedule: Q07DX Z (sc), vehicle: other) was 115 % of control. The T/C (dose: 108.0 mg/kg/injection, schedule: Q## X Z (sc), vehicle: other) was 115 % of control, the T/C (dose: 120.0 mg/kg/injection, schedule: Q01DX001 (ip), vehicle: saline) was 110 % of control and the T/C (dose: 130.0 mg/kg/injection, schedule: Q01DX Z (sc), vehicle: methylcellulose (MC)) was 109 % of control. For the same compound, the T/C (dose: 130.0 mg/kg/injection, schedule: Q01DX Z (sc), vehicle: other) was 150 % of control, the T/C (dose: 160.0 mg/kg/injection, schedule: Q01DX009 (sc), vehicle: other) was 102 % of control and the T/C (dose: 180.0 mg/kg/injection, schedule: Q01DX001 (sc), vehicle: other) was 121 % of control. The T/C (dose: 180.0 mg/kg/injection, schedule: Q01DX Z (oral), vehicle: methylcellulose (MC)) was 150 % of control, the T/C (dose: 180.0 mg/kg/injection, schedule: Q07DX Z (sc), vehicle: other) was 121 % of control and the T/C (dose: 200.0 mg/kg/injection, schedule: Q01DX012 (ip), vehicle: other) was 100 % of control. The T/C (dose: 216.0 mg/kg/injection, schedule: Q01DX Z (oral), vehicle: methylcellulose (MC)) was 109 % of control, the T/C (dose: 216.0 mg/kg/injection, schedule: Q01DX Z (sc), vehicle: methylcellulose (MC)) was 109 % of control and the T/C (dose: 216.0 mg/kg/injection, schedule: Q01DX Z (sc), vehicle: other) was 150 % of control. The T/C (dose: 240.0 mg/kg/injection, schedule: Q01DX001 (ip), vehicle: saline) was 110 % of control, the T/C (dose: 300.0 mg/kg/injection, schedule: Q01DX Z (oral), vehicle: methylcellulose (MC)) was 150 % of control and 154 % of control and the T/C (dose: 300.0 mg/kg/injection, schedule: Q01DX Z (sc), vehicle: methylcellulose (MC)) was 120 % of control. For the same compound, the T/C (dose: 300.0 mg/kg/injection, schedule: Q07DX Z (sc), vehicle: other) was 121 % of control, the T/C (dose: 300.0 mg/kg/injection, schedule: Q## X Z (sc), vehicle: other) was 157 % of control and the T/C (dose: 360.0 mg/kg/injection, schedule: Q01DX Z (oral), vehicle: methylcellulose (MC)) was 122 % of control. For the same compound, the T/C (dose: 500.0 mg/kg/injection, schedule: Q01DX Z (oral), vehicle: other) was 120 % of control.
